Patent US12679807B2 (MERCK SHARP & DOHME LLC, priority 2020, dated 2026)

Each molecule was assayed against T1, GCS enzyme contained within Golgi preparations isolated from human A375 malignant melanoma skin cells (Homo sapiens, UniProt Q16739) (assay: UDP-Glo glucosylceramide synthase biochemical assay). Settings: crude Golgi preparation from A375 cells; C6 ceramide and UDP-glucose substrates; 20 h incubation at room temperature; UDP detected by luminescence.
T1 construct: endogenous levels of GCS enzyme contained within Golgi preparations isolated from human A375 malignant melanoma skin cells; endogenous in cells; host or cells: A375 human malignant melanoma cells (crude Golgi preparation)
T1 sequence (Q16739 1-394): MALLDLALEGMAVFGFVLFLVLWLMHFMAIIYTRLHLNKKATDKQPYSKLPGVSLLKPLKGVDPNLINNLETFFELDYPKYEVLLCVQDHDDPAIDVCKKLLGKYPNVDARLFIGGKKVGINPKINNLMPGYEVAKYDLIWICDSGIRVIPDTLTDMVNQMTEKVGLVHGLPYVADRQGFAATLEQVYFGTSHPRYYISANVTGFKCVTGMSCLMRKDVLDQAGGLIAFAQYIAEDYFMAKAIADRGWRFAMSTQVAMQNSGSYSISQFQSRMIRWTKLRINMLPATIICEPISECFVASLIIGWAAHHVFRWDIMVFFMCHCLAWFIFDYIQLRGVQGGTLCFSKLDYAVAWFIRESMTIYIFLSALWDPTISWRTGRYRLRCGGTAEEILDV
Summary of the method: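 Endogenous enzyme in A375 Golgi preparations (1.5 μg total protein) was preincubated 30 min with compound, then reacted 20 h at room temperature with UDP-glucose and ceramide.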
For `C[C@@H](N1Cc2cccc(NC(=O)c3c(C(F)(F)F)cnc4ccccc34)c2C1=O)C(C)(C)O` [Compound 127, (R)-N-(2-(3-hydroxy-3-methylbutan-2-yl)-3-oxoisoindolin-4-yl)-3-(trifluoromethyl)quinoline-4-carboxamide], the EC50 was 38 nM.
For `O=C(Nc1cccc2c1C(=O)N(CC1CC1)C2)c1c2c(nc3ccccc13)CCC2` [Compound 128, N-(2-(cyclopropylmethyl)-3-oxoisoindolin-4-yl)-2,3-dihydro-1H-cyclopenta[b]quinoline-9-carboxamide], the EC50 was 38 nM.
`C[C@@H](N1Cc2cccc(NC(=O)c3nc(C(F)(F)F)ccc3Cl)c2C1=O)C(C)(C)O` [Compound 129, (R)-3-chloro-N-(2-(3-hydroxy-3-methylbutan-2-yl)-3-oxoisoindolin-4-yl)-6-(trifluoromethyl)picolinamide] gave an EC50 of 38 nM.
`O=C(Nc1cccc2c1C(=O)N(CC1CC1)C2)c1c(C(F)(F)F)cnc2ccccc12` [Compound 130, N-(2-(cyclopropylmethyl)-3-oxoisoindolin-4-yl)-3-(trifluoromethyl)quinoline-4-carboxamide] showed an EC50 of 40 nM.
`CC(C)[C@H](CO)N1Cc2cccc(NC(=O)c3nc(Cl)ccc3C(F)(F)F)c2C1=O` [Compound 132, (R)-6-chloro-N-(2-(1-hydroxy-3-methylbutan-2-yl)-3-oxoisoindolin-4-yl)-3-(trifluoromethyl)picolinamide] was tested, and the EC50 was 46 nM.
Work on `Cn1cc2c(C(=O)Nc3cccc4c3C(=O)N(C(C3CC3)C3CC3)C4)cccc2n1` [Compound 133, N-(2-(dicyclopropylmethyl)-3-oxoisoindolin-4-yl)-2-methyl-2H-indazole-4-carboxamide] yielded an EC50 of 49 nM.
In the case of `Cc1cnc2c(c1C(=O)Nc1cccc3c1C(=O)N([C@@H](C)C1CC1)C3)OCO2` [Compound 134, (S)-N-(2-(1-cyclopropylethyl)-3-oxoisoindolin-4-yl)-6-methyl-[1,3]dioxolo[4,5-b]pyridine-7-carboxamide], the EC50 is reported as 59 nM.
`COc1ccc2ncc(F)c(C(=O)Nc3cccc4c3C(=O)N(CC3CC3)C4)c2n1` [Compound 135, N-(2-(cyclopropylmethyl)-3-oxoisoindolin-4-yl)-3-fluoro-6-methoxy-1,5-naphthyridine-4-carboxamide] gave an EC50 of 64 nM.
`C[C@@H](C1CC1)N1Cc2cccc(NC(=O)c3c(Cl)cnc4c3OCO4)c2C1=O` [Compound 137, (S)-6-chloro-N-(2-(1-cyclopropylethyl)-3-oxoisoindolin-4-yl)-[1,3]dioxolo[4,5-b]pyridine-7-carboxamide] was tested, and the EC50 was 77 nM.
`CCOc1ncccc1C(=O)Nc1cccc2c1C(=O)N([C@H](C)C(C)(C)O)C2` [Compound 138, (R)-2-ethoxy-N-(2-(3-hydroxy-3-methylbutan-2-yl)-3-oxoisoindolin-4-yl)nicotinamide] showed an EC50 of 88 nM.
Work on `O=C(Nc1cccc2c1C(=O)N(CC1CC1)C2)c1c(Cl)cncc1Cl` [Compound 139, 3,5-dichloro-N-(2-(cyclopropylmethyl)-3-oxoisoindolin-4-yl)isonicotinamide] yielded an EC50 of 120 nM.
`C[C@@H](C1CC1)N1Cc2cccc(NC(=O)c3ccnc4c3CCC4)c2C1=O` [Compound 140, (S)-N-(2-(1-cyclopropylethyl)-3-oxoisoindolin-4-yl)-6,7-dihydro-5H-cyclopenta[b]pyridine-4-carboxamide] was tested, and the EC50 was 120 nM.
Molecule `O=C(Nc1cccc2c1C(=O)N(C(C1CC1)C1CC1)C2)c1ccnc2[nH]ccc12` [Compound 141, N-(2-(dicyclopropylmethyl)-3-oxoisoindolin-4-yl)-1H-pyrrolo[2,3-b]pyridine-4-carboxamide] has an EC50 of 140 nM.
`O=C(Nc1cccc2c1C(=O)N(C(C1CC1)C1CC1)C2)c1ccc(F)c2c1CCC2=O` [Compound 142, N-(2-(dicyclopropylmethyl)-3-oxoisoindolin-4-yl)-7-fluoro-1-oxo-2,3-dihydro-1H-indene-4-carboxamide] was tested, and the EC50 was 140 nM.
In the case of `O=C(Nc1cc(Cl)cc2c1C(=O)N(CC1CC1)C2)c1ccnc2c1CCC2` [Compound 143, N-(6-chloro-2-(cyclopropylmethyl)-3-oxoisoindolin-4-yl)-6,7-dihydro-5H-cyclopenta[b]pyridine-4-carboxamide], the EC50 is reported as 180 nM.
Work on `O=C(Nc1cccc2c1C(=O)N(CC1CC1)C2)c1ccnc2ccc(F)cc12` [Compound 144, N-(2-(cyclopropylmethyl)-3-oxoisoindolin-4-yl)-6-fluoroquinoline-4-carboxamide] yielded an EC50 of 190 nM.
With `O=C(Nc1cccc2c1C(=O)N(C(C1CC1)C1CC1)C2)c1cccc2c1OCC2` [Compound 145, N-(2-(dicyclopropylmethyl)-3-oxoisoindolin-4-yl)-2,3-dihydrobenzofuran-7-carboxamide] the EC50 was 260 nM.
`O=C(Nc1cccc2c1C(=O)N(CC1CC1)C2)c1ccnc2c1CCC2` [Compound 146, N-(2-(cyclopropylmethyl)-3-oxoisoindolin-4-yl)-6,7-dihydro-5H-cyclopenta[b]pyridine-4-carboxamide] gave an EC50 of 390 nM.
`O=C(Nc1ccc(Cl)c2c1C(=O)N(CC1CC1)C2)c1ccnc2c1CCC2` [Compound 147, N-(7-chloro-2-(cyclopropylmethyl)-3-oxoisoindolin-4-yl)-6,7-dihydro-5H-cyclopenta[b]pyridine-4-carboxamide] gave an EC50 of 560 nM.
With `Cc1cc2c(c(NC(=O)c3ccnc4c3CCC4)c1)C(=O)N(CC1CC1)C2` [Compound 148, N-(2-(Cyclopropylmethyl)-6-methyl-3-oxoisoindolin-4-yl)-6,7-dihydro-5H-cyclopenta[b]pyridine-4-carboxamide] the EC50 was 500 nM.
`O=C(Nc1ccc(O)c2c1C(=O)N(CC1CC1)C2)c1ccnc2c1CCC2` [Compound 149, N-(2-(Cyclopropylmethyl)-7-hydroxy-3-oxoisoindolin-4-yl)-6,7-dihydro-5H-cyclopenta[b]pyridine-4-carboxamide] gave an EC50 of 900 nM.
Work on `O=C(Nc1cccc2c1C(=O)N(c1ccc(F)cc1)C2)OC1CN2CCC1CC2` (stereo not drawn) [Compound 150, Quinuclidin-3-yl(2-(4-fluorophenyl)-3-oxoisoindolin-4-yl)carbamate] yielded an EC50 of 740 nM.
Molecule `CC(C)(O)[C@@H](C1CC1)N1Cc2cccc(NC(=O)c3cccn4nccc34)c2C1=O` [Compound 156, (R)-N-(2-(1-cyclopropyl-2-hydroxy-2-methylpropyl)-3-oxoisoindolin-4-yl)pyrazolo[1,5-a]pyridine-4-carboxamide] has an EC50 of 0.97 nM.
Molecule `COc1nccc(C(=O)Nc2cccc3c2C(=O)N([C@H](C2CC2)C(C)(C)O)C3)c1C` [Compound 159, (R)-N-(2-(1-cyclopropyl-2-hydroxy-2-methylpropyl)-3-oxoisoindolin-4-yl)-2-methoxy-3-methylisonicotinamide] has an EC50 of 2.5 nM.
Work on `Cn1cc2c(C(=O)Nc3cc(F)cc4c3C(=O)N([C@H](C3CC3)C(C)(C)O)C4)cccc2n1` [Compound 161, (R)-N-(2-(1-cyclopropyl-2-hydroxy-2-methylpropyl)-6-fluoro-3-oxoisoindolin-4-yl)-2-methyl-2H-indazole-4-carboxamide] yielded an EC50 of 9.1 nM.
`O=C(Nc1cccc2c1C(=O)N(CC1(O)CCC1)C2)c1ccnc2c1CCC2` [Compound 166, N-(2-((1-hydroxycyclobutyl)methyl)-3-oxoisoindolin-4-yl)-6,7-dihydro-5H-cyclopenta[b]pyridine-4-carboxamide] showed an EC50 of 360 nM.
With `Cc1ccc(F)c(C(=O)Nc2cncc3c2C(=O)N([C@H](C2CC2)C(C)(C)O)C3)c1Cl` [Compound 167, (R)-2-chloro-N-(2-(1-cyclopropyl-2-hydroxy-2-methylpropyl)-1-oxo-2,3-dihydro-1H-pyrrolo[3,4-c]pyridin-7-yl)-6-fluoro-3-methylbenzamide] the EC50 was 2.1 nM.
